Tests used:
5-HT2A receptor = target: T1, 5-HT2A receptor (Homo sapiens, UniProt P28223); test: radioligand binding assay for 5-HT2A receptor ([3H]-ketanserin); details: competitive binding
T1 construct: expressed in transfected cells; host or cells: CHO-K1 (or COS-7); alternatively human cortex tissue
Procedure: (§1) The effect of the compounds of the present invention on the neurochemical steady state was determined by in vitro investigations such as a radionuclide-marked radioligand binding assay for 5-HT2A (Bonhaus D. W. Br. J. Pharmacol. 1995, 115:622; Saucier C. J. Neurochem. 1997, 68:1998) and 5-HT2C receptors (Wolf W. A. J. Neurochem. 1997, 69:1449), in vitro binding assay for σ1 receptor (Thomson W. and Donn R. Arthritis Res. 2002, 4: 302-306) and by in vivo investigations in a tail suspension test (Vogel H. G. and Vogel W. H. Drug Discovery and Evaluation Pharmacological Assays, Springer 1997, 304), in amphethamine-induced hyperlocomotion in mice (Millan M. J. et al, 1998 J. Pharmacol. Exp. Ther. 287: 167-186), in a forced swim test in mice (Porsolt R. D. et al. Arch. Int. Pharmacodyn. 1977, 229:327-336), in meta-chlorophenyl piperazine (m-CPP) test on rats (Drug Dev. Res. 1989, 18:119-144), and in apomorphine, tryptamine, norepinephrine (ATN) test in rats (Arch. Int. […]
(§2) A small concentration of a radioligand having a great affinity for binding to a receptor was incubated with a tissue sample enriched with a certain receptor (1-5 mg of tissue) in a buffered medium (0.2-5 mL). […] When a binding balance was achieved, the receptors to which the radioligand was bound were separated from those to which said ligand was not bound, and the radioactivity of the receptor/radioligand complex was measured. […]

5-HT2C receptor = target: T2, 5-HT2C receptor (Homo sapiens, UniProt P28335); test: radioligand binding assay for 5-HT2C receptor ([3H]mesulergine); details: competitive binding
T2 construct: expressed in transfected cells; host or cells: CHO-K1 (or COS-7); alternatively choroid plexus tissue
T2 sequence (P28335 33-458): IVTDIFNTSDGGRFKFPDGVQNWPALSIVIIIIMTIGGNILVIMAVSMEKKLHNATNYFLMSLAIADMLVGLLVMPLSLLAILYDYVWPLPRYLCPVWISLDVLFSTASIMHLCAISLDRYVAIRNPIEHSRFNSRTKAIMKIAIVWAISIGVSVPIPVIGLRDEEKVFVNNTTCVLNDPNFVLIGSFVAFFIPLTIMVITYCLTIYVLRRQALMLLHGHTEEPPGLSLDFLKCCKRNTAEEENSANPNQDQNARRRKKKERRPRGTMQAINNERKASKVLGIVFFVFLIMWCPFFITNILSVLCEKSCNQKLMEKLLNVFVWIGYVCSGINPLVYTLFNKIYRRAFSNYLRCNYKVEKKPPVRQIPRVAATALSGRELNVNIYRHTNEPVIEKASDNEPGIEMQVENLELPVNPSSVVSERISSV
Procedure: as §1, §2

T1 sequence (P28223 whole entry): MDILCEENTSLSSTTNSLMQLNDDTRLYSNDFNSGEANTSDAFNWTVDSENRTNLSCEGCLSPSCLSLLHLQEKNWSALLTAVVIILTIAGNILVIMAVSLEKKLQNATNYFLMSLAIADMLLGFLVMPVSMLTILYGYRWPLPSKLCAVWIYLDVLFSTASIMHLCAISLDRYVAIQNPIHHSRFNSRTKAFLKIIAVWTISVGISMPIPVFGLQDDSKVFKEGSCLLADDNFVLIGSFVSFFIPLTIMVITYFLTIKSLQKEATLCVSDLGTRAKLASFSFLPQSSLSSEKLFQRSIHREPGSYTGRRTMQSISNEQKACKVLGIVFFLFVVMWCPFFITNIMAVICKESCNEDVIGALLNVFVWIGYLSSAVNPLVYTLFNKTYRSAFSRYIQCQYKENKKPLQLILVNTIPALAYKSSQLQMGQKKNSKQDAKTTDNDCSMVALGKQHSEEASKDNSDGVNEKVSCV

- IC50 (5-HT2A receptor; human cortex or recombinant 5-HT2A in CHO-K1, read-out: binding affinity to 5-HT2A serotonin receptor expressed as IC50 value): < 0.2 µM
- Ki (5-HT2A receptor; human cortex or recombinant 5-HT2A in CHO-K1, read-out: binding affinity to 5-HT2A serotonin receptor, Ki value): < 0.1 µM
- IC50 (5-HT2C receptor; choroid plexus or recombinant 5-HT2C in CHO-K1, read-out: binding affinity to 5-HT2C serotonin receptor expressed as IC50 value): < 0.2 µM
- Ki (5-HT2C receptor; choroid plexus or recombinant 5-HT2C in CHO-K1, read-out: binding affinity to 5-HT2C serotonin receptor, Ki value): < 0.1 µM
Structure (SMILES): CN(C)CCOCc1cc2c([nH]1)-c1ccccc1Sc1ccccc1-2 [dimethyl-[2-(1H-8-thia-1-aza-dibenzo[e,h]azulen-2-ylmethoxy)-ethyl]-amine]
